Measurements as given in US8975398B2, “NAMPT inhibitors” (AbbVie Inc., priority 2012, dated 2015).

Tests used:
NAMPT = NAMPT (Homo sapiens, UniProt P43490); experiment: Time-Resolved Fluorescence Resonance Energy Transfer (TR-FRET) Binding Assay of NAMPT with PRPP; conditions: 2 nM NAMPT, 2 nM probe, 200 uM PRPP and 2.5 mM ATP, equilibrated 16 hours
Protocol: Time-Resolved Fluorescence Resonance Energy Transfer (TR-FRET) Binding Assay of NAMPT with PRPP
Compound handling and data processing were identical to the assay in the absence of substrates (above). Final concentrations were 1× assay buffer, 2% DMSO, 2 nM NAMPT, 2 nM probe, 1 nM Tb-anti-His antibody (Invitrogen #PV5895), 200 uM PRPP and 2.5 mM ATP. Reactions were equilibrated for 16 hours prior to measurement to allow for potential enzymatic modification of test compounds.

[1] = molecular target: NAMPT (human, recombinant, C-terminally His-tagged) (Homo sapiens, UniProt P43490); experiment: Time-Resolved Fluorescence Resonance Energy Transfer (TR-FRET) Binding Assay of NAMPT; conditions: 6.8 nM NAMPT, 200 nM probe, equilibrated 3 hours, absence of substrates
Protocol: Determination of the utility of compounds having Formula (I) as binders to and inhibitors of NAMPT was performed using Time-Resolved Fluorescence Resonance Energy Transfer (TR-FRET) binding assays.
Time-Resolved Fluorescence Resonance Energy Transfer (TR-FRET) Binding Assay of NAMPT
Test compounds were serially diluted (typically 11 half log dilutions) in neat DMSO to 50× final concentrations prior to dilution with assay buffer (50 mM HEPES (NaOH), pH 7.5, 100 mM NaCl, 10 mM MgCl2, 1 mM DTT, 1% Glycerol) to 3× and 6% DMSO. Six μL were transferred to 384-well low-volume plates (Owens Corning #3673). To this, 12 μL of a 1.5× solution containing enzyme, probe and antibody were added. Final concentrations in the 18 μL, reactions were 1× assay buffer, 2% DMSO, 6.8 nM NAMPT (human, recombinant, C-terminally His-tagged), 200 nM probe (a potent nicotinamide-competitive inhibitor conjugated to Oregon Green 488) and 1 nM Tb-anti-His antibody (Invitrogen #PV5895). Reactions were equilibrated at room temperature for 3 hours prior to reading on an Envision multi-label plate reader (Perkin Elmer; Ex=337 nm, Em=520 and 495 nm). Time-resolved FRET ratios (Em520/Em495) were normalized to controls, plotted as a function of compound concentration and fit with the four-parameter logistic equation to determine IC50s.

Sequence of NAMPT (P43490 whole entry): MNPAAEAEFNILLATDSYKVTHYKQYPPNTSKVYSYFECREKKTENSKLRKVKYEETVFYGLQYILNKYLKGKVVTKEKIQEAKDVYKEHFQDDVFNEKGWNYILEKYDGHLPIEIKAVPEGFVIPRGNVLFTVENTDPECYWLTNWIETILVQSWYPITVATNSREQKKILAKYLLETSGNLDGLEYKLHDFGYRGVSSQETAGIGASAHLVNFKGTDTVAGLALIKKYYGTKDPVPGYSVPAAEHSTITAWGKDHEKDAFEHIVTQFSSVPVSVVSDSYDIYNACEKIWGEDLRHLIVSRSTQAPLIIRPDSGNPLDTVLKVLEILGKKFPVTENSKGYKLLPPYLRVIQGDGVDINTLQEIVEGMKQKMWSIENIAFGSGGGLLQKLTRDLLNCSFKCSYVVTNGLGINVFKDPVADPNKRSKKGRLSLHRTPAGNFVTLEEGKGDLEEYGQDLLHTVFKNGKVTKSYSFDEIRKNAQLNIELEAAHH
Sequence of NAMPT (human, recombinant, C-terminally His-tagged) (P43490 whole entry): as above

## Cc1ccc(C)c(C(=O)N2CCC(c3ccc(NC(=O)C4CN(c5cccnn5)C4)cc3)CC2)c1 [Example 359, N-{4-[1-(2,5-dimethylbenzoyl)piperidin-4-yl]phenyl}-1-(pyridazin-3-yl)azetidine-3-carboxamide]
NAMPT
  IC50: 0.000869 µM
[1]
  IC50: 0.0213 µM

## O=C(Nc1ccc(C2CCN(C(=O)CC3CCOCC3)CC2)cc1)C1CN(c2ccnnc2)C1 [Example 145, 1-(pyridazin-4-yl)-N-{4-[1-(tetrahydro-2H-pyran-4-ylacetyl)piperidin-4-yl]phenyl}azetidine-3-carboxamide]
NAMPT
  IC50: 0.0581 µM
[1]
  IC50: 0.0406 µM

## O=C(Nc1ccc(C2CCN(C(=O)Cc3ccccc3F)CC2)cc1)C1CN(c2cccnn2)C1 [Example 366, N-(4-{1-[(2-fluorophenyl)acetyl]piperidin-4-yl}phenyl)-1-(pyridazin-3-yl)azetidine-3-carboxamide]
NAMPT
  IC50: 0.000681 µM
[1]
  IC50: 0.0351 µM

## O=C(Nc1ccc(C2CCN(C(=O)c3ccccc3)CC2)cc1)[C@H]1CCN(c2cccnn2)C1 [Example 311, (3S)—N-[4-(1-benzoylpiperidin-4-yl)phenyl]-1-(pyridazin-3-yl)pyrrolidine-3-carboxamide]
NAMPT
  IC50: 0.00396 µM
[1]
  IC50: 0.0302 µM

## Cc1ncccc1N1CC(C(=O)Nc2ccc(C3CCN(C(=O)c4cccs4)CC3)cc2)C1 [Example 187, 1-(2-methylpyridin-3-yl)-N-{4-[1-(thiophen-2-ylcarbonyl)piperidin-4-yl]phenyl}azetidine-3-carboxamide]
NAMPT
  IC50: 0.0273 µM
[1]
  IC50: 0.0102 µM

## Cc1ncccc1N1CC(C(=O)Nc2ccc(C3CCN(C(=O)C4(C)CC4)CC3)cc2)C1 [Example 170, N-(4-{1-[(1-methylcyclopropyl)carbonyl]piperidin-4-yl}phenyl)-1-(2-methylpyridin-3-yl)azetidine-3-carboxamide]
NAMPT
  IC50: 0.0898 µM
[1]
  IC50: 0.0915 µM

## O=C(Nc1ccc(OC2CCN(C(=O)C3CCCO3)CC2)cc1)C1CN(c2ccnnc2)C1 (stereo not drawn) [Example 302, 1-(pyridazin-4-yl)-N-(4-{[1-(tetrahydrofuran-2-ylcarbonyl)piperidin-4-yl]oxy}phenyl)azetidine-3-carboxamide]
NAMPT
  IC50: 0.0483 µM
[1]
  IC50: 0.15 µM

## Cc1ncccc1N1CC(C(=O)Nc2ccc(C3CCN(C(=O)CCC(F)(F)F)CC3)cc2)C1 [Example 172, 1-(2-methylpyridin-3-yl)-N-{4-[1-(4,4,4-trifluorobutanoyl)piperidin-4-yl]phenyl}azetidine-3-carboxamide]
NAMPT
  IC50: 0.17 µM
[1]
  IC50: 0.286 µM

## O=C(Nc1ccc(OC2CCN(C(=O)Cc3cccc(C(F)(F)F)c3)CC2)cc1)C1CN(c2ccnnc2)C1 [Example 305, 1-(pyridazin-4-yl)-N-{4-[(1-{[3-(trifluoromethyl)phenyl]acetyl}piperidin-4-yl)oxy]phenyl}azetidine-3-carboxamide]
NAMPT
  IC50: 0.035 µM
[1]
  IC50: 0.109 µM

## O=C(Nc1ccc(OC2CN(C(=O)c3ccc(F)cc3F)C2)cc1)C1CN(c2ccnnc2)C1 [Example 200, N-(4-{[1-(2,4-difluorobenzoyl)azetidin-3-yl]oxy}phenyl)-1-(pyridazin-4-yl)azetidine-3-carboxamide]
NAMPT
  IC50: 0.0344 µM
[1]
  IC50: 0.0331 µM

## O=C(Nc1ccc(OC2CN(C(=O)C3CCCC3)C2)cc1)C1CN(c2ccnnc2)C1 [Example 259, N-(4-{[1-(cyclopentylcarbonyl)azetidin-3-yl]oxy}phenyl)-1-(pyridazin-4-yl)azetidine-3-carboxamide]
NAMPT
  IC50: 0.0177 µM
[1]
  IC50: 0.0325 µM

## CC(=O)N1CCC(Oc2ccc(NC(=O)C3CN(c4cccnn4)C3)cc2)CC1 [Example 244, -{4-[(1-acetylpiperidin-4-yl)oxy]phenyl}-1-(pyridazin-3-yl)azetidine-3-carboxamide]
NAMPT
  IC50: 0.000916 µM
[1]
  IC50: 0.449 µM

## O=C(Nc1ccc(OC2CCN(C(=O)c3ccc(Cl)cc3)CC2)cc1)C1CN(c2cccnn2)C1 [Example 245, N-(4-{[1-(4-chlorobenzoyl)piperidin-4-yl]oxy}phenyl)-1-(pyridazin-3-yl)azetidine-3-carboxamide]
NAMPT
  IC50: 0.000707 µM
[1]
  IC50: 0.101 µM

## CCC(=O)N1CCC(c2ccc(NC(=O)C3CN(c4cccnc4)C3)cc2)CC1 [Example 121, N-[4-(1-propanoylpiperidin-4-yl)phenyl]-1-(pyridin-3-yl)azetidine-3-carboxamide]
NAMPT
  IC50: 0.000169 µM
[1]
  IC50: 0.00994 µM

## O=C(Nc1ccc(C2CCN(CC3CCCC3)CC2)cc1)C1CN(c2cccnc2)C1 [Example 88, N-{4-[1-(cyclopentylmethyl)piperidin-4-yl]phenyl}-1-(pyridin-3-yl)azetidine-3-carboxamide]
NAMPT
  IC50: 0.00064 µM
[1]
  IC50: 0.574 µM

## O=C(Nc1ccc(OC2CCN(C(=O)c3cccc(C(F)(F)F)c3)CC2)cc1)C1CN(c2ccnnc2)C1 [Example 285, 1-(pyridazin-4-yl)-N-[4-({1-[3-(trifluoromethyl)benzoyl]piperidin-4-yl}oxy)phenyl]azetidine-3-carboxamide]
NAMPT
  IC50: 0.0862 µM
[1]
  IC50: 0.149 µM

## CCOCCC(=O)N1CCC(c2ccc(NC(=O)C3CN(c4cccnc4)C3)cc2)CC1 [Example 115, N-{4-[1-(3-ethoxypropanoyl)piperidin-4-yl]phenyl}-1-(pyridin-3-yl)azetidine-3-carboxamide]
NAMPT
  IC50: 0.000178 µM
[1]
  IC50: 0.0482 µM

## O=C(Nc1ccc(OC2CCN(C(=O)CN3CCOCC3)CC2)cc1)C1CN(c2cccnc2)C1 [Example 60, N-(4-{[1-(morpholin-4-ylacetyl)piperidin-4-yl]oxy}phenyl)-1-(pyridin-3-yl)azetidine-3-carboxamide]
NAMPT
  IC50: 0.00101 µM
[1]
  IC50: 0.15 µM

## CCCCC(=O)N1CC(Oc2ccc(NC(=O)C3CN(c4ccnnc4)C3)cc2)C1 [Example 210, N-{4-[(1-pentanoylazetidin-3-yl)oxy]phenyl}-1-(pyridazin-4-yl)azetidine-3-carboxamide]
NAMPT
  IC50: 0.0383 µM
[1]
  IC50: 0.0317 µM

## Cc1ncccc1N1CC(C(=O)Nc2ccc(C3CCN(C(=O)c4ccc(F)cc4)CC3)cc2)C1 [Example 155, N-{4-[1-(4-fluorobenzoyl)piperidin-4-yl]phenyl}-1-(2-methylpyridin-3-yl)azetidine-3-carboxamide]
NAMPT
  IC50: 0.044 µM
[1]
  IC50: 0.294 µM

## O=C(Nc1ccc(C2CCN(C(=O)c3ccoc3)CC2)cc1)C1CN(c2cccnn2)C1 [Example 375, N-{4-[1-(furan-3-ylcarbonyl)piperidin-4-yl]phenyl}-1-(pyridazin-3-yl)azetidine-3-carboxamide]
NAMPT
  IC50: 0.000679 µM
[1]
  IC50: 0.00672 µM

## CC(=O)N1CCC(c2ccc(NC(=O)C3CN(c4cccnc4)C3)cc2)CC1 [Example 118, N-[4-(1-acetylpiperidin-4-yl)phenyl]-1-(pyridin-3-yl)azetidine-3-carboxamide]
NAMPT
  IC50: 0.000169 µM
[1]
  IC50: 0.0141 µM

## Cc1ncccc1N1CC(C(=O)Nc2ccc(C3CCN(C(=O)c4ccc(Cl)cc4)CC3)cc2)C1 [Example 156, N-{4-[1-(4-chlorobenzoyl)piperidin-4-yl]phenyl}-1-(2-methylpyridin-3-yl)azetidine-3-carboxamide]
NAMPT
  IC50: 0.0843 µM
[1]
  IC50: 0.396 µM

## O=C(Nc1ccc(OC2CCN(C(=O)c3ccc(OC(F)(F)F)cc3)CC2)cc1)C1CN(c2ccnnc2)C1 [Example 290, 1-(pyridazin-4-yl)-N-[4-({1-[4-(trifluoromethoxy)benzoyl]piperidin-4-yl}oxy)phenyl]azetidine-3-carboxamide]
NAMPT
  IC50: 0.0457 µM
[1]
  IC50: 0.0993 µM
